According to patent publication US9221810B2, “Substituted bicyclic aromatic compounds as S-nitrosoglutathione reductase inhibitors” (Nivalis Therapeutics, Inc., priority 2010, dated 2015):

Experiments:
[1] = test system: mouse model of ovalbumin (OVA)-induced asthma; experiment: Mouse model of ovalbumin (OVA)-induced asthma: MCh-induced AHR (Penh) and eosinophil infiltrate in BALF; type: in vivo; details: three oral doses of 10 mg/kg at 48 h, 24 h, and 1 h prior to assessment; p<0.05
Protocol: A mouse model of ovalbumin (OVA)-induced asthma was used to screen GSNOR inhibitors for efficacy against methacholine (MCh)-induced bronchoconstriction/airway hyper-responsiveness. This is a widely used and well characterized model that presents with an acute, allergic asthma phenotype with similarities to human asthma. Efficacy of GSNOR inhibitors was assessed using a protocol in which GSNOR inhibitors were administered after OVA sensitization and airway challenge, and prior to challenge with MCh. Bronchoconstriction in response to challenge with increasing doses of MCh was assessed using whole body plethysmography (Penh; Buxco). The amount of eosinophil infiltrate into the bronchoaveolar lavage fluid (BALF) was also determined as a measure of lung inflammation. The effects of GSNOR inhibitors were compared to vehicles and to Combivent (inhaled; IH) as the positive control.
OVA (500 μg/ml) in PBS was mixed with equal volumes of 10% (w/v) aluminum potassium sulfate in distilled water and incubated for 60 min. at room temperature after adjustment to pH 6.5 using 10 N NaOH. After centrifugation at 750×g for 5 min, the OVA/alum pellet was resuspended to the original volume in distilled water. Mice received an intraperitoneal (IP) injection of 100 μg OVA (0.2 mL of 500 μg/mL in normal saline) complexed with alum on day 0. Mice were anesthetized by IP injection of a 0.2-mL mixture of ketamine and xylazine (0.44 and 6.3 mg/mL, respectively) in normal saline and were placed on a board in the supine position. Two hundred fifty micrograms (100 μl of a 2.5 mg/ml) of OVA (on day 8) and 125 μg (50 μl of 2.5 mg/ml) OVA (on days 15, 18, and 21) were placed on the back of the tongue of each animal.
In vivo airway responsiveness to methacholine was measured 24 h after the last OVA challenge in conscious, freely moving, spontaneously breathing mice with whole body plethysmography using a Buxco chamber (Wilmington, N.C.). […] The degree of bronchoconstriction was expressed as enhanced pause (Penh), a calculated dimensionless value, which correlates with the measurement of airway resistance, impedance, and intrapleural pressure in the same mouse. Penh readings were taken and averaged for 4 min. after each nebulization challenge. Penh is calculated as follows: Penh=[(Te/Tr−1)×(PEF/PIF)], where Te is expiration time, Tr is relaxation time, PEF is peak expiratory flow, and PIF is peak inspiratory flow×0.67 coefficient. […]
After measurement of airway hyper-reactivity, the mice were exsanguinated by cardiac puncture, and then BALF was collected from either both lungs or from the right lung after tying off the left lung at the mainstem bronchus. Total BALF cells were counted from a 0.05 mL aliquot, and the remaining fluid was centrifuged at 200×g for 10 min at 4° C. […]

GSNOR = target: T1, GSNOR (Homo sapiens, UniProt P11766); experiment: GSNOR assay (inhibition of GSNOR activity, NADH absorbance at 340 nm); type: biochemical; details: printed as 'about <'; 0.240 mM GSNO, 0.300 mM NADH, pH 7.4, 25° C.
T1 construct: made in house; host or cells: E. coli (arabinose-induced)
Protocol: GSNOR expression and purification is described in Biochemistry 2000, 39, 10720-10729.
GSNOR Fermentation: Pre-cultures were grown from stabs of a GSNOR glycerol stock in 2XYT media containing 100 ug/ml ampicillin after an overnight incubation at 37° C. Cells were then added to fresh 2XYT (4 L) containing ampicillin and grown to an OD (A600) of 0.6-0.9 at 37° C. before induction. GSNOR expression was induced with 0.1% arabinose in an overnight incubation at 20° C.
GSNOR Purification: E. coli cell paste was lysed by nitrogen cavitation and the clarified lysate purified by Ni affinity chromatography on an AKTA FPLC (Amersham Pharmacia). The column was eluted in 20 mM Tris pH 8.0/250 mM NaCl with a 0-500 mM imidazole gradient. Eluted GSNOR fractions containing the Smt-GSNOR fusion were digested overnight with Ulp-1 at 4° C. to remove the affinity tag then re-run on the Ni column under the same conditions. GSNOR was recovered in the flowthrough fraction and for crystallography is further purified by Q-Sepharose and Heparin flowthrough chromatography in 20 mM Tris pH 8.0, 1 mM DTT, 10 uM ZnSO4.
GSNOR Assay: GSNO and enzyme/NADH Solutions are made up fresh each day. The solutions are filtered and allowed to warm to room temperature. GSNO solution: 100 mM NaPO4 (pH 7.4), 0.480 mM GSNO. 396 μL of GSNO Solution is added to a cuvette followed by 8 μL of test compound in DMSO (or DMSO only for full reaction control) and mixed with the pipette tip. Compounds to be tested are made up at a stock concentration of 10 mM in 100% DMSO. 2 fold serial dilutions are done in 100% DMSO. 8 μL of each dilution are added to an assay so that the final concentration of DMSO in the assay is 1%. The concentrations of compounds tested range from 100 to 0.003 μM. Enzyme/NADH solution: 100 mM NaPO4 (pH 7.4), 0.600 mM NADH, 1.0 μg/mL GSNO Reductase. 396 μL of the Enzyme/NADH solution is added to the cuvette to start the reaction. The cuvette is placed in the Cary 3E UV/Visible Spectrophotometer and the change in 340 nm absorbance/min at 25° C. is recorded for 3 minutes. The assays are done in triplicate for each compound concentration. IC50's for each compound are calculated using the standard curve analysis in the Enzyme Kinetics Module of SigmaPlot.
Final assay conditions: 100 mM NaPO4, pH 7.4, 0.240 mM GSNO, 0.300 mM NADH, 0.5 μg/mL GSNO Reductase, and 1% DMSO. Final volume: 800 μL/cuvette.

T1 sequence (P11766 whole entry): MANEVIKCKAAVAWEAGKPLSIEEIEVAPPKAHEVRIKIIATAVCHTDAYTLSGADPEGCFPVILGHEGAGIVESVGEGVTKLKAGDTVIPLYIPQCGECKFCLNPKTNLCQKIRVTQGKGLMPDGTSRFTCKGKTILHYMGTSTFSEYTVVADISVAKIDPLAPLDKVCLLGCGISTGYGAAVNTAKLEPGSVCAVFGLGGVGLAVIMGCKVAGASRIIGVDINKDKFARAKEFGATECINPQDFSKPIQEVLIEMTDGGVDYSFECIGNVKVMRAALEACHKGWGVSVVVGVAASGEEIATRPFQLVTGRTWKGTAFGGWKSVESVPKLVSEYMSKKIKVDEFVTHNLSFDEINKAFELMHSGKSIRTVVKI

SMILES	decrease of eosinophil infiltration in BAL [1]	IC50 (GSNOR)
O=C(O)c1ccc(-c2ccc3cc(O)ccc3n2)c(Cl)c1 [Example 8, 3-chloro-4-(6-hydroxyquinolin-2-yl)benzoic acid]	37 % of vehicle control	< 100 nM
O=C(O)c1ccc(-c2ccc3cc(O)ccc3n2)cc1 [Example 3, 4-(6-hydroxyquinolin-2-yl)benzoic acid]	42 % of vehicle control	–
